These are literature values, as cited in US9125936B2, “Ginger extract for the protection of stem cells” (Symrise AG, priority 2013, dated 2015).

The conditions of this data set: water (20° dH) at 20° C.; solid active agent.

As to `Nc1nc2c(ncn2COCCO)c(=O)[nH]1` [Acyclovir, 2-Amino-1,9-dihydro-9-((2-hydroxyethoxy)methyl)-6H-Purin-6-one], the solubility in water result is “less than 5 g/L”.
